“And” between values parts separate entries of the source, which are not always exact repeats. Equal entries are not always repeated. Non-standard residues stand in square brackets, D forms with d. No end group written: not given here. *: point of attachment. Tiq = 1,2,3,4-tetrahydroisoquinoline-1-carboxylic acid; Acetyl(2-naphthyl) = O=C(Cc1ccc2ccccc2c1)*; Bip = N[C@@H](Cc1ccc(-c2ccccc2)cc1)C(=O)O; dDip = N[C@@H](C(=O)O)C(c1ccccc1)c1ccccc1; 1Nal = N[C@@H](Cc1cccc2ccccc12)C(=O)O; 2Nal = N[C@@H](Cc1ccc2ccccc2c1)C(=O)O; dIgl = N[C@@H](C(=O)O)C1Cc2ccccc2C1; Igl = N[C@H](C(=O)O)C1Cc2ccccc2C1; Tic = O=C(O)[C@@H]1Cc2ccccc2CN1; d(pGlu) = O=C1CC[C@H](C(=O)O)N1; aThr = C[C@H](O)[C@H](N)C(=O)O; code Z = not defined here
Experiments:
Male Sprague-Dawley rats = experiment: Combination penile erection behavior studies: antagonist IV before IN agonist; type: in vivo, rat;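 for Mean Penile Erections/Rat: Erections counted over 30 min observation after IN dosing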;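 for Percent with Penile Erections: Erections counted over 30 min observation after IN dosing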
Experimental: Conditions were as in Example 3 except as noted. Groups of 5-6 rats received an IV dose of either placebo or antagonist 5 minutes prior to an IN dose of either placebo or agonist. Two antagonists were used: ReO[Heptanoyl-Ser(Bzl)-D-Nal 2′-Arg-Trp-Cys-NH2] and SHU9119 (Hruby V J, Lu D, Sharma S D, et al. J Med Chem 38:3454-3461 (1995)), Ac-Nle-cyclo(-Asp-His-D-Nal 2′-Arg-Trp-Lys)-NH2. The agonist used was Ac-Nle-cyclo(-Asp-His-D-Phe-Arg-Trp-Lys)-OH. Immediately after IN treatment, rats were placed into individual Lucite cages for observation. […] In combination studies, the antagonist was dosed IV 5 minutes prior to a 50 μg/kg IN dose of Ac-Nle-cyclo(-Asp-His-D-Phe-Arg-Trp-Lys)-OH.
These studies were conducted as described above in Example 4 with metallopeptide antagonists administered IV five minutes before IN administration of 50 μg/kg Ac-Nle-cyclo(-Asp-His-D-Phe-Arg-Trp-Lys)-OH. […] The potency of these antagonists also correlated with their relative binding affinities in the in vitro binding assays.

hMC5-R = biological target: T1, hMC5-R (Homo sapiens, UniProt P33032); experiment: Competitive binding assay: inhibition of 125I-NDP-α-MSH binding to HEK-293 membranes with cloned human receptor subtype 5; conditions: Table 6; 1 μM; mean of triplicate
T1 construct: expressed in transfected cells; host or cells: HEK-293
Method in brief: (§1)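 Rhenium-complexed metallopeptides at a chosen single concentration competed with 125I-NDP-α-MSH on membranes of HEK-293 expressing cloned human MC receptors or, for MC1-R, B16-F10 mouse melanoma cells. Percent inhibition normalized to specific binding (nonspecific defined with 1 μM α-MSH); means of triplicates.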

hMC2-R = biological target: T2, hMC2-R (Homo sapiens, UniProt P41968); experiment: Competitive binding assay of additional compounds, Table 6 hMC2-R; conditions: 1 μM, mean of triplicate
T2 construct: expressed in transfected cells; host or cells: HEK-293

MC4-R = biological target: T3, MC4-R (Homo sapiens, UniProt P32245); experiment: Competitive binding assay: inhibition of 125I-NDP-α-MSH binding to HEK-293 membranes with cloned human receptor subtype 4; conditions: Table 6, mean of triplicate
T3 construct: expressed in transfected cells; host or cells: HEK-293
Method in brief: as §1

MC1-R = biological target: T4, MC1-R (Mus musculus, UniProt Q01727); experiment: Competitive binding assay: inhibition of 125I-NDP-α-MSH binding to membranes from B16-F10 mouse melanoma cells; conditions: Table 6, mean of triplicate
T4 construct: MC1-R membranes were isolated from B16—F10 mouse melanoma cells; endogenous in cells; host or cells: B16-F10 mouse melanoma cells
Method in brief: as §1

[1] = combination: antagonist 5 μg/kg IV 5 min prior to 50 μg/kg IN Ac-Nle-cyclo(-Asp-His-D-Phe-Arg-Trp-Lys)-OH
[2] = agonist alone 50 μg/kg IN, arm of the ReO[Heptanoyl-Ser(Bzl)-D-Nal 2′-Arg-Trp-Cys-NH2] study
[3] = agonist alone 50 μg/kg IN, arm of the SHU9119 study

T4 sequence (Q01727 whole entry): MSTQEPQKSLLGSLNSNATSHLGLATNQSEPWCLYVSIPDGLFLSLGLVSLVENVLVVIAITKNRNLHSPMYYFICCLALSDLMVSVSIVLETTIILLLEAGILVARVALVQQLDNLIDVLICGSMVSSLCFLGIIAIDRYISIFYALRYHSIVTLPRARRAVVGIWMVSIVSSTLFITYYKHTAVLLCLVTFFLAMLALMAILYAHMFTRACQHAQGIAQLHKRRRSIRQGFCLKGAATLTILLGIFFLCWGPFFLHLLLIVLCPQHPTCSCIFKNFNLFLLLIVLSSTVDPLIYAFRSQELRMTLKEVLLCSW
T3 sequence (P32245 whole entry): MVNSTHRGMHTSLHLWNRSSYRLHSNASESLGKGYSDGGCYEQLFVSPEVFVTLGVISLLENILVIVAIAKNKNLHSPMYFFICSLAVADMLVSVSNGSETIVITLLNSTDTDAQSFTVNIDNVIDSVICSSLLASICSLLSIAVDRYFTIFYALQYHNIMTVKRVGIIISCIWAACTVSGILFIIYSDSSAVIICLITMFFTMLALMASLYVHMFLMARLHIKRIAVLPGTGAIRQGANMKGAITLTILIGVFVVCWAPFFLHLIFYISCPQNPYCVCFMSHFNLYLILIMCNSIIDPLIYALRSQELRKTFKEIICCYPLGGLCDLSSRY
T2 sequence (P41968 whole entry): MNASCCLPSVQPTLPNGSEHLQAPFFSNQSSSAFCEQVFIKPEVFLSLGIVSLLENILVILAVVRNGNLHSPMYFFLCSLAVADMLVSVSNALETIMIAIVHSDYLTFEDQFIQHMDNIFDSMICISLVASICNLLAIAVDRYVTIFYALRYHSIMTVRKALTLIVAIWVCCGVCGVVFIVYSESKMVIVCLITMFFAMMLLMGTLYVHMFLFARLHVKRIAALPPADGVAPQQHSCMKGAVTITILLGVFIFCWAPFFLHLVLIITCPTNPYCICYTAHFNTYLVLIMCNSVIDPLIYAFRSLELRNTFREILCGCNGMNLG
T1 sequence (P33032 whole entry): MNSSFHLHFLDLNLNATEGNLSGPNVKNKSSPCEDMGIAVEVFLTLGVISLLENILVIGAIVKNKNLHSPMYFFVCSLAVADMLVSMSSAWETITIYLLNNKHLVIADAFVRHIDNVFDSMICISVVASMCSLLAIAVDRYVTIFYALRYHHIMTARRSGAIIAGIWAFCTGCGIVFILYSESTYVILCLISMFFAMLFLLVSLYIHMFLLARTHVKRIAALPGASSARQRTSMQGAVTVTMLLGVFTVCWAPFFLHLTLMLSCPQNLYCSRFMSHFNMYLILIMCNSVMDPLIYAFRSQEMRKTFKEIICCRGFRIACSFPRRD

Row | % Inhibition of Binding hMC5-R (hMC5-R) | % Inhibition of Binding hMC2-R (hMC2-R) | % Inhibition of Binding hMC4-R (MC4-R; 1 μM) | % Inhibition of Binding MC1-R (MC1-R; 1 μM) | Substance | also measured
1 | – | – | – | – | Ac-Nle-cyclo(-Asp-His-D-Nal 2′-Arg-Trp-Lys)-NH2 | Mean Penile Erections/Rat (Male Sprague-Dawley rats; antagonist alone, 5 μg/kg IV): 0; Percent with Penile Erections (Male Sprague-Dawley rats; antagonist alone, 5 μg/kg IV): 0%; Mean Penile Erections/Rat (Male Sprague-Dawley rats; [1]): 0; Percent with Penile Erections (Male Sprague-Dawley rats; [1]): 0%; Effect on erectile behavior induced by Ac-Nle-cyclo(-Asp-His-D-Phe-Arg-Trp-Lys)-OH, in words (Male Sprague-Dawley rats; rats, antagonist IV before IN agonist): blocked
2 | – | – | – | – | Ac-Nle-cyclo(-Asp-His-D-Phe-Arg-Trp-Lys)-OH | Mean Penile Erections/Rat (Male Sprague-Dawley rats; [2]): 1.2 ± 0.3; Percent with Penile Erections (Male Sprague-Dawley rats; [2]): 83%; Mean Penile Erections/Rat (Male Sprague-Dawley rats; [3]): 1.6 ± 0.2; Percent with Penile Erections (Male Sprague-Dawley rats; [3]): 100%
3 | 100% | 90% | 94% | 74% | NH2-(CH2)6-CO-Ser(Bzl)-D-Phe(4′-Cl)-Arg-Trp-Cys-NH2 | % Inhibition of Binding hMC2-R (hMC2-R; listed as NH2(CH2)6CO-Ser(Bzl)-D-Phe(4′-Cl)-Arg-Trp-Cys-NH2, 1 µM): 87%; % Inhibition of Binding hMC4-R (MC4-R; 0.1 μM): 68%; % Inhibition of Binding MC1-R (MC1-R; 0.1 μM): 28%
4 | 45% | 6% | 12% | 0% | Nal 1′-D-Phe-Arg-Cys-Trp-NH2 ([1Nal][dF]RCW-NH2; also: metal complex) | –
5 | 68% | 3% | 15% | 11% | Nal 1′-D-Phe-Arg-Trp-Cys-NH2 ([1Nal][dF]RWC-NH2; also: metal complex) | –
6 | 63% | 13% | 21% | 39% | Nal 2′-D-Phe-Arg-Cys-Trp-NH2 ([2Nal][dF]RCW-NH2; also: metal complex) | –
7 | 62% | 0% | 20% | 8% | Nal 2′-D-Phe-Arg-Trp-Cys-NH2 ([2Nal][dF]RWC-NH2; also: metal complex) | –
8 | 56% | 0% | 0% | 7% | Naphthlyl-2-acetyl-D-Phe-Arg-Cys-Trp-NH2 ({Acetyl(2-naphthyl)}-[dF]RCW-NH2; also: metal complex) | –
9 | 33% | 0% | 2% | 27% | Pro-D-Phe-Arg-Cys-Trp-NH2 (P[dF]RCW-NH2; also: metal complex) | –
10 | 0% | 0% | 14% | 39% | Pro-D-Phe-Arg-Trp-Cys-NH2 (P[dF]RWC-NH2; also: metal complex) | –
11 | 91% | 23% | 71% | 18% | Ser(Bzl)-D-Nal 2′-Arg-Nal 2′-Cys-NH2 | –
12 | 69% | 0% | 28% | 27% | Ser(Bzl)-D-Phe-Arg-Trp-Cys-NH2 ({Ser(Bzl)}-[dF]RWC-NH2; also: metal complex) | –
13 | 83% | 52% | 92% | 10% | Tic-D-Nal-2′-Arg-Trp-Cys-NH2 | –
14 | 59% | 26% | 69% | 15% | Tic-D-Phe(2′-Cl)-Arg-Trp-Cys-NH2 | –
15 | 76% | 41% | 62% | 18% | Tic-D-Phe(3′-Cl)-Arg-Trp-Cys-NH2 | –
16 | 42% | 0% | 3% | 0% | Tic-D-Phe(4′-Cl)-Arg-Cys-NH2 | –
17 | 90% | 71% | 88% | 45% | Tic-D-Phe(4′-Cl)-Arg-Trp-Cys-NH2 | –

Row | % Inhibition of Binding hMC5-R (hMC5-R) | % Inhibition of Binding hMC2-R (hMC2-R) | % Inhibition of Binding hMC4-R (MC4-R; 1 μM) | % Inhibition of Binding MC1-R (MC1-R; 1 μM) | Substance | also measured
18 | 13% | 3% | 0% | 2% | Tic-D-Phe(4′-Cl)-Gln-Cys-NH2 | –
19 | 37% | 0% | 0% | 15% | Tic-D-Phe(4′-Cl)-His-Cys-NH2 | –
20 | 84% | 0% | 6% | 16% | Tic-D-Phe(4′-Cl)-Lys-Cys-NH2 | –
21 | 69% | 25% | 64% | 14% | Tic-D-Phe-Arg-Trp-Cys-NH2 ([Tic][dF]RWC-NH2; also: metal complex) | –
22 | 56% | 3% | 16% | 53% | Tiq-D-Phe-Arg-Cys-Trp-NH2 (Tiq-[dF]RCW-NH2; also: metal complex) | –
23 | 55% | 7% | 8% | 7% | Tiq-D-Phe-Arg-Trp-Cys-NH2 (Tiq-[dF]RWC-NH2; also: metal complex) | –
24 | 28% | 16% | 46% | 44% | Z-D-Pyr-D-Phe-Arg-Trp-Cys-NH2 ({code Z}-[d(pGlu)][dF]RWC-NH2; reading uncertain; also: metal complex, printed as Z-D-Pyr-D-Phe-Arg-Trp-Cys-NH2) | –
25 | 51% | 0% | 19% | 0% | [Bip][dF]RWC-NH2 | –
26 | 67% and 64% | 7% and 0% | 14% and 20% | 38% and 36% | [Igl][dF]RCW-NH2 | –
27 | 36% | 0% | 62% | 70% | [Igl][dF]RWC-NH2 | –
28 | 53% | 8% | 2% | 58% | [dDip][dF]RCW-NH2 | –
29 | 8% | 0% | 34% | 23% | [dDip][dF]RWC-NH2 | –
30 | 39% | 12% | 15% | 49% | [dIgl][dF]RCW-NH2 | –
31 | 63% | 0% | 8% | 2% | [dIgl][dF]RWC-NH2 | –
32 | 67% | 0% | 13% | 53% | [dP][dF]RCW-NH2 | –
33 | 35% | 0% | 18% | 1% | [dP][dF]RWC-NH2 | –
34 | 31% | 5% | 0% | 66% | allo-Thr-D-Phe-Arg-Cys-Trp-NH2 ([aThr][dF]RCW-NH2; also: metal complex) | –

— patent US7307063B2, “Melanocortin metallopeptides for treatment of sexual dysfunction” (Palatin Technologies, Inc., priority 2001, dated 2007)
